Test results reported in PubChem BioAssay (NCI).
“And” between values parts separate entries of the source, which are not always exact repeats. Identical values can stand only once.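 Where inhibition never reached the appropriate level, the endpoint shown equals the highest concentration tested. Otherwise, values were interpolated linearly from a five-concentration, 48-hour dose response in 96-well plates. GI50 marks 50% less growth. The concentration for full growth arrest is given as TGI.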

What was measured:
Experiment in all cases: inhibition of tumour cell growth, NCI panel, 48 h
LOX IMVI melanoma = system: LOX IMVI melanoma
A549 NSCLC = system: A549 NSCLC
COLO 205 colon = system: COLO 205 colon
T-47D breast = system: T-47D breast
HCT-15 colon = system: HCT-15 colon
RXF 393 renal = system: RXF 393 renal
UACC-257 melanoma = system: UACC-257 melanoma
OVCAR-5 ovarian = system: OVCAR-5 ovarian
IGROV1 ovarian = system: IGROV1 ovarian
BT-549 breast = system: BT-549 breast

| Compound | TGI (LOX IMVI melanoma) | TGI (A549 NSCLC) | TGI (COLO 205 colon) | TGI (T-47D breast) | TGI (HCT-15 colon) | TGI (RXF 393 renal) | TGI (UACC-257 melanoma) | TGI (OVCAR-5 ovarian) | TGI (IGROV1 ovarian) | TGI (BT-549 breast) | GI50 (COLO 205 colon) | GI50 (HCT-15 colon) | GI50 (RXF 393 renal) | GI50 (OVCAR-5 ovarian) |
| --- | --- | --- | --- | --- | --- | --- | --- | --- | --- | --- | --- | --- | --- | --- |
| CSc1s[s+]c(SC)c1-c1ccccc1 | 52 µM | > 100 µM | 32.4 µM | > 100 µM | 41.5 µM | 30.4 µM | 27.8 µM | 31.2 µM | > 100 µM | 28.2 µM |  |  |  |  |
| CN(C)CCn1c(=O)c2ccc(NCCNCCO)c3c(=O)c4cc(O)ccc4n(c1=O)c23 | 4.42 µM | 33.9 µM | 4.6 µM | 13.3 µM | 53.8 µM | 3.73 µM | 19.2 µM | 16.1 µM | 7.47 µM | 32.4 µM |  |  |  |  |
| C=CCN1C(=O)/C(=C/c2ccc(Cl)cc2)N=C1SC1OC(COC(C)=O)C(OC(C)=O)C(OC(C)=O)C1OC(C)=O (centres undefined) | > 100 µM and 89.8 µM | 65.7 µM | > 100 µM | 36.9 µM | > 100 µM | 19.5 µM and 47.5 µM | 45.2 µM and 74.4 µM | > 100 µM | > 100 µM | > 100 µM and 84.1 µM | > 89.5 µM and 31.9 µM | 41.1 µM and 16 µM | 4.94 µM and 11.6 µM | > 66.9 µM and 32.7 µM |
| COc1cc(O)c2c(c1)C(O)C(O)CC1OC1C(=O)/C=C/CC(C)OC2=O (centres undefined) | 16.2 µM | 67.8 µM | 16.1 µM | 30.4 µM | 17 µM | 5.6 µM | 2.48 µM | 31 µM | 20.1 µM | 6.1 µM |  |  |  |  |
| CC(=O)Nc1ncc2c(n1)-c1ccccc1OC2 | > 100 µM | > 100 µM | > 100 µM | > 100 µM | > 100 µM | > 100 µM | > 100 µM | > 100 µM | > 100 µM | > 100 µM |  |  |  |  |
| O=C(O)c1ccccc1-c1ccccc1C(=O)c1ccccc1 | > 100 µM | > 100 µM | > 100 µM | > 100 µM | > 100 µM | > 100 µM | > 100 µM | > 100 µM | > 100 µM | > 100 µM |  |  |  |  |
| O=C(O)CNC(=O)c1cccc2c(=O)c3ccccc3[nH]c12 | > 100 µM | > 100 µM | > 100 µM | > 100 µM | > 100 µM | > 100 µM | > 100 µM | > 100 µM | > 100 µM | > 100 µM |  |  |  |  |
| COc1ccccc1OC/C(N=Cc1ccncc1)=N/NC(=O)c1ccncc1 | > 100 µM | > 100 µM | > 100 µM | > 100 µM | > 100 µM | > 100 µM | > 100 µM | > 100 µM | > 100 µM | > 100 µM |  |  |  |  |
| CC(C)[Si]1(C(C)C)OCC2OC(n3cnc4c(N)ncnc43)C(N)C2O[Si](C(C)C)(C(C)C)O1 (centres undefined) | 21.3 µM | 49.5 µM | 23.9 µM | 30.5 µM | 23.8 µM | 27.1 µM | 32.4 µM | 67.6 µM | 43.3 µM | 14.3 µM |  |  |  |  |
